Laboratory results as given in patent US12268674B2, “Mi-2β inhibitor as an immunotherapy agent” (BioVentures, LLC, priority 2021, dated 2025).

Legend:
Test in all cases: ATPase profile (ATP acyl phosphate probe)
Format in all cases: binding
NOP2 = molecular target: T1, NOP2 (Homo sapiens, UniProt P46087); settings: NOP2, SEQ ID NO: 136, ATP BS
T1 construct: to get the native cell lysate; endogenous in cells; host or cells: A375

VCP = molecular target: T2, VCP (Homo sapiens, UniProt P55072)
T2 construct: to get the native cell lysate; endogenous in cells; host or cells: A375 cell lysate
T2 sequence (P55072 2-806 limits assumed): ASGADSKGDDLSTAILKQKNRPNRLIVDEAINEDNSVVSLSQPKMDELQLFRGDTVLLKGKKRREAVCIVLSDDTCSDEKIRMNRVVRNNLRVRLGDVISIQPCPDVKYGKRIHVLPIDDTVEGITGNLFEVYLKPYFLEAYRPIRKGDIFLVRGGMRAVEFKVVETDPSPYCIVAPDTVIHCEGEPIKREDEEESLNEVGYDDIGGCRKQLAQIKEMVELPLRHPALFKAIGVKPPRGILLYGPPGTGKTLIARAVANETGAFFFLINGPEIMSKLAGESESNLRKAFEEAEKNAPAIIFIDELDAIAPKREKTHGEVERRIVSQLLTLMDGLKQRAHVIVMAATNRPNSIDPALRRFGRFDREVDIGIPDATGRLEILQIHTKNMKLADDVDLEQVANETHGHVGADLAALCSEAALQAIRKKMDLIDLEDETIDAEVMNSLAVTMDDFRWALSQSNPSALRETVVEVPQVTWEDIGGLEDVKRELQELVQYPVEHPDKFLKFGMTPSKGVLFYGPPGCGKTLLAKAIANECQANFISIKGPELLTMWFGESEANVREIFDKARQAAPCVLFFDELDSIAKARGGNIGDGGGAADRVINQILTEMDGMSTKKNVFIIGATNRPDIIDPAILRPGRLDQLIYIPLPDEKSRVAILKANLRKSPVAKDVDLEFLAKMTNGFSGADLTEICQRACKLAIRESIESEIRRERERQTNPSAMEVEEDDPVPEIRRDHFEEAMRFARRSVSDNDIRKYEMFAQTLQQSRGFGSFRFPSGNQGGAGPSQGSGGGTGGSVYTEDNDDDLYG

SPG7 = molecular target: T3, SPG7 (Homo sapiens, UniProt Q9UQ90); settings: SPG7, SEQ ID NO: 197, ATP BS
T3 construct: to get the native cell lysate; endogenous in cells; host or cells: A375 cell lysate

TOR3A = molecular target: T4, TOR3A (Homo sapiens, UniProt Q9H497); settings: SEQ ID NO: 206, ATP BS
T4 construct: to get the native cell lysate; endogenous in cells; host or cells: A375 cell lysate

ACLY = molecular target: T5, ACLY (Homo sapiens, UniProt P53396)
T5 construct: to get the native cell lysate; host or cells: A375 cell lysate
T5 sequence (P53396 whole entry): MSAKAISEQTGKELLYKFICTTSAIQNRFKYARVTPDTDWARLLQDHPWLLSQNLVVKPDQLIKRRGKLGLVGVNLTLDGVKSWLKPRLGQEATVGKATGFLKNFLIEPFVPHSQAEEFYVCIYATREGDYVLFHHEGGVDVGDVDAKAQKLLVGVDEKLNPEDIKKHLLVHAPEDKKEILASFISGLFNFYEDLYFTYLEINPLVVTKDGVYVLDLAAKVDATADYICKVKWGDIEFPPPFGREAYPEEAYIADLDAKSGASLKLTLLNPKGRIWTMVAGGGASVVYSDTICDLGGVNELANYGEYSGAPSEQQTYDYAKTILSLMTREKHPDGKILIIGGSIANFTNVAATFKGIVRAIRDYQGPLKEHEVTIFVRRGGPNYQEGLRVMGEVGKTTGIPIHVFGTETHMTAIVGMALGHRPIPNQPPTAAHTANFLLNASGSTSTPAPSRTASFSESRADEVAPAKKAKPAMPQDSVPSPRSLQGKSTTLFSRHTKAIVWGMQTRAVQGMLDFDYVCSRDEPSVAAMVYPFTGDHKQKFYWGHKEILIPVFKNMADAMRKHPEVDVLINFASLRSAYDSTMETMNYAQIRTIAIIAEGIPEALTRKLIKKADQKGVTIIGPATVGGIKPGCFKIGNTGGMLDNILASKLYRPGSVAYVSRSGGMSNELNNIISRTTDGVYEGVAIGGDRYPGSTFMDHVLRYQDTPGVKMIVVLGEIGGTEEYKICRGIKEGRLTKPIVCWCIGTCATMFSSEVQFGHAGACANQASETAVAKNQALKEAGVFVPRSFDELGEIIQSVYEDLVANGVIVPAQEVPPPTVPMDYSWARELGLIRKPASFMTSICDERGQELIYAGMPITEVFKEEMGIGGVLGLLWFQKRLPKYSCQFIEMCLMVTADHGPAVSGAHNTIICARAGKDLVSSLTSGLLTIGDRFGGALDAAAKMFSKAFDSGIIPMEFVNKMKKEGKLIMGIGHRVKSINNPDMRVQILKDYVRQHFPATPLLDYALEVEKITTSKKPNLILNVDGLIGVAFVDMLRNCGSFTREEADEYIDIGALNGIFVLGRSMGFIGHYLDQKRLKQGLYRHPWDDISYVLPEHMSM

PC = molecular target: T6, PC (Homo sapiens, UniProt P11498); settings: SEQ ID NO: 152, ATP BS
T6 construct: to get the native cell lysate; endogenous in cells; host or cells: A375

RFC2 = molecular target: T7, RFC2 (Homo sapiens, UniProt P35250); settings: RFC2, SEQ ID NO: 184, ATP BS
T7 construct: to get the native cell lysate; endogenous in cells; host or cells: A375 cell lysate

DDX3X = molecular target: T8, DDX3X (Homo sapiens, UniProt O00571); settings: SEQ ID NO: 70, ATP BS
T8 construct: endogenous in cells; host or cells: A375 cell lysate

TOP2A, TOP2B = settings: SEQ ID NO: 202, ATP BS
TRMU = molecular target: T9, TRMU (Homo sapiens, UniProt O75648)
T9 construct: to get the native cell lysate; endogenous in cells; host or cells: A375 cell lysate
T9 sequence (O75648 whole entry): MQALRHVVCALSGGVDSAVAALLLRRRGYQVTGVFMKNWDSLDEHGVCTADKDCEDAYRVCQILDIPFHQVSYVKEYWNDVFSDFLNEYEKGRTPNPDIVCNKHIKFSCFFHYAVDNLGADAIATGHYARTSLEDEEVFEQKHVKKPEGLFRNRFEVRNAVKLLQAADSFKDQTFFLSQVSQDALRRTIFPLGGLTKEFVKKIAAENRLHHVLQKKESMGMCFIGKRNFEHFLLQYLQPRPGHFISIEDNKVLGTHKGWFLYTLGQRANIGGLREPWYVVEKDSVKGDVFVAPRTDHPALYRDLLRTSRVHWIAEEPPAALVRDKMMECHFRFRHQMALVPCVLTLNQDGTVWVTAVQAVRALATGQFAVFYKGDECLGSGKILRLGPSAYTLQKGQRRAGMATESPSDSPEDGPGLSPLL

PFKM = molecular target: T10, PFKM (Homo sapiens, UniProt P08237); settings: SEQ ID NO: 159, ATP BS
T10 construct: to get the native cell lysate; endogenous in cells; host or cells: A375 cell lysate
T10 sequence (P08237 whole entry): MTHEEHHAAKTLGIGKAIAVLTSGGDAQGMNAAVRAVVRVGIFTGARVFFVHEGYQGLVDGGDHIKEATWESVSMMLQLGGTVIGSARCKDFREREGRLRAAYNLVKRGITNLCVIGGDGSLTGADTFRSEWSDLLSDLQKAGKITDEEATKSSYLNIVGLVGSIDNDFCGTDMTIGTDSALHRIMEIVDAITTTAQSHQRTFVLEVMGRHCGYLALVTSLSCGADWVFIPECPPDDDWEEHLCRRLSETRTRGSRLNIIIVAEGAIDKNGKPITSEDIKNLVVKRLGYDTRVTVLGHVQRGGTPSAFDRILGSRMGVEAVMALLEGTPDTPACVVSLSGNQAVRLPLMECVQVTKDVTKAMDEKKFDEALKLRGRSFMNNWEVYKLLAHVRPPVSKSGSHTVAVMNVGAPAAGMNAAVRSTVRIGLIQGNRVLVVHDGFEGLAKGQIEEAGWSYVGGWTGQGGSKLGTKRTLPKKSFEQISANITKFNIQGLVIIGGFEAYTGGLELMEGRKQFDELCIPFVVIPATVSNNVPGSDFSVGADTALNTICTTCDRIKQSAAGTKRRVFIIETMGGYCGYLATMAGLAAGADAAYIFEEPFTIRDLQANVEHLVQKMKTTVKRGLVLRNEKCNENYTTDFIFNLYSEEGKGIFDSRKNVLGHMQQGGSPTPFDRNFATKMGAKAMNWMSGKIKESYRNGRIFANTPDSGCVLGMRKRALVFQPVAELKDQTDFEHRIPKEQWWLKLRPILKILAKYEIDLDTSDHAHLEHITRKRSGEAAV

[1] = tested on: HSP90AA, HSP90AA2, HSP90AB1; settings: HSP90AA2, HSP90AB1, SEQ ID NO: 96, ATP BS
HSP90AB1, HSP90AB3P = molecular target: T11, HSP90AB1, HSP90AB3P (Homo sapiens, UniProt P08238); settings: SEQ ID NO: 98, ATP BS
T11 construct: to get the native cell lysate; endogenous in cells; host or cells: A375

ABCD3 = molecular target: T12, ABCD3 (Homo sapiens, UniProt P28288); settings: ABCD3, SEQ ID NO: 13, ATP BS
T12 construct: to get the native cell lysate; host or cells: A375 cell lysate

HPRT1 = molecular target: T13, HPRT1 (Homo sapiens, UniProt P00492); settings: HPRT1, SEQ ID NO: 93, ATP BS
T13 construct: to get the native cell lysate; endogenous in cells; host or cells: A375
T13 sequence (P00492 whole entry): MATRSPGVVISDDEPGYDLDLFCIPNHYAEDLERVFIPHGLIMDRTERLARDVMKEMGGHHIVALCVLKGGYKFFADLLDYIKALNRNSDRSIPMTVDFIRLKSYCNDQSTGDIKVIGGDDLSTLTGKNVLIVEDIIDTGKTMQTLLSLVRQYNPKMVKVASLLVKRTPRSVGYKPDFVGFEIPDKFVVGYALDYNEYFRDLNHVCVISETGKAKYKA

GART = molecular target: T14, GART (Homo sapiens, UniProt P22102)
T14 construct: endogenous in cells; host or cells: A375 cell lysate
T14 sequence (P22102 1-1010): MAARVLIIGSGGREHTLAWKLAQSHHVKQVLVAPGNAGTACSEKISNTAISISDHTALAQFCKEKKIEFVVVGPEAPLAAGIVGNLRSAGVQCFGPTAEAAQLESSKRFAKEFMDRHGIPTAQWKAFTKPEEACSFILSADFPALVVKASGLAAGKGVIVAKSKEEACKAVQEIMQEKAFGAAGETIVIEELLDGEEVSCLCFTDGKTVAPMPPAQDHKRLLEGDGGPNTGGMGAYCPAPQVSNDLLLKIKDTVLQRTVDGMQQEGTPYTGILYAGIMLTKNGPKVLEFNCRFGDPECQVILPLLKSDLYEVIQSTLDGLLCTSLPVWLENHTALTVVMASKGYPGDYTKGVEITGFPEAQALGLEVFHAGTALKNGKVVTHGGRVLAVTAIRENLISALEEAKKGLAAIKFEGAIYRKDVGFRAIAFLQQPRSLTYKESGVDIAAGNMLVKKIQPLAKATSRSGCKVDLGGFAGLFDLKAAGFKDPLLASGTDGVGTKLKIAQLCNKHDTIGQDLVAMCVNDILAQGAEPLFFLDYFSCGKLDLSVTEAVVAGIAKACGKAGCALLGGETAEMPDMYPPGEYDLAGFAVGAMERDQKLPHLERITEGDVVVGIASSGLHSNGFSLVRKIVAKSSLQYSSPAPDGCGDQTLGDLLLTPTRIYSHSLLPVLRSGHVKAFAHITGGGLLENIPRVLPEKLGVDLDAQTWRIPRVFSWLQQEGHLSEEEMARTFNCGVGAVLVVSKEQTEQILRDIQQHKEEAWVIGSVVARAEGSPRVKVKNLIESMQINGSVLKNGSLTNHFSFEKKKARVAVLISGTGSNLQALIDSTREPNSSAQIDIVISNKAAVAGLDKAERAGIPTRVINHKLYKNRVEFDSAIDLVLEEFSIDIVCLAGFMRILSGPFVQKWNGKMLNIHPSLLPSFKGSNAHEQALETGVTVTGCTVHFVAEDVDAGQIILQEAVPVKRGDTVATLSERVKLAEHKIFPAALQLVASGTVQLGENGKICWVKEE

PSMC5 = molecular target: T15, PSMC5 (Homo sapiens, UniProt P62195); settings: PSMC5, SEQ ID NO: 177, ATP BS
T15 construct: to get the native cell lysate; endogenous in cells; host or cells: A375 cell lysate

ABCC3 = molecular target: T16, ABCC3 (Homo sapiens, UniProt O15438)
T16 construct: host or cells: A375 cell lysate
T16 sequence (O15438 whole entry): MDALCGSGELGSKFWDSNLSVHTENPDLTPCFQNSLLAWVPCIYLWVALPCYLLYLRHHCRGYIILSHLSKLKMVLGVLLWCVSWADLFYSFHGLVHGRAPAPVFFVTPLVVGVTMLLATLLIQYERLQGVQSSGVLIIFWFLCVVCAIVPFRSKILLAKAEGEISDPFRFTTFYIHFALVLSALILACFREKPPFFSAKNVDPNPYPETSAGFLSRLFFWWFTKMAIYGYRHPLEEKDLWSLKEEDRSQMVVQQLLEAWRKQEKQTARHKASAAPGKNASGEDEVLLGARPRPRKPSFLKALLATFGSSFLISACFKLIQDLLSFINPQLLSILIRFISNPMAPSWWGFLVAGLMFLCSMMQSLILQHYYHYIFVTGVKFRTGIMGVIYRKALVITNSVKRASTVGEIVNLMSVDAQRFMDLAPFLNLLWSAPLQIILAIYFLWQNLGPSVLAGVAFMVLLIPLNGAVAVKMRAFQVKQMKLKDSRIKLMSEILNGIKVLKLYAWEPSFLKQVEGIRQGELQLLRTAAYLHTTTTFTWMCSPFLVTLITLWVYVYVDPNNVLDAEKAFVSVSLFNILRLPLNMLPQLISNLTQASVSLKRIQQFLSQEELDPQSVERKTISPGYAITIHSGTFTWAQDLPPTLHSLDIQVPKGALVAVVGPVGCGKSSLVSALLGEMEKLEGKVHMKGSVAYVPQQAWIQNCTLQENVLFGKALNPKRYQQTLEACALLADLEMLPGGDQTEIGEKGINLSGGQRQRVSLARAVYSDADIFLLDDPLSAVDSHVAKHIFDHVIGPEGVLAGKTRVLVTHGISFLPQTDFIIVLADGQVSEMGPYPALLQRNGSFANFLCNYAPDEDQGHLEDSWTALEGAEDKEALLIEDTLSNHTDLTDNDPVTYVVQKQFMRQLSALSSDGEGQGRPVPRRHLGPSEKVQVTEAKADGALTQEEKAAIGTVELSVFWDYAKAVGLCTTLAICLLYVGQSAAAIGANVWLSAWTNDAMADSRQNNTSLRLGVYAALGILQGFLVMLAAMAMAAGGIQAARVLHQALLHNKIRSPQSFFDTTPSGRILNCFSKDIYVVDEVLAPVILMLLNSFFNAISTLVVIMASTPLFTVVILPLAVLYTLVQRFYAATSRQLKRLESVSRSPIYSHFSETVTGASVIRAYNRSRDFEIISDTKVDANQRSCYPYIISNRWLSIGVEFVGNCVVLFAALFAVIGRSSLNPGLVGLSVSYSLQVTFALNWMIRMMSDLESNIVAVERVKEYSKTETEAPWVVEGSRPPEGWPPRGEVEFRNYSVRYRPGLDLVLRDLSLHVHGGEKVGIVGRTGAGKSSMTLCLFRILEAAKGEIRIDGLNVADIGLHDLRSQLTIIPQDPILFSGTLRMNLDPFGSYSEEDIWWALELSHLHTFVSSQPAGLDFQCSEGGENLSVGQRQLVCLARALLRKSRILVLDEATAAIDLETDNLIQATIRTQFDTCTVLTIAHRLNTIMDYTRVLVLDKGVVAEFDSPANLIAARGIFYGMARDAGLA

CCT2 = molecular target: T17, CCT2 (Homo sapiens, UniProt P78371); settings: CCT2, SEQ ID NO: 51, ATP BS
T17 construct: to get the native cell lysate; host or cells: A375 cell lysate

NUDT1 = molecular target: T18, NUDT1 (Homo sapiens, UniProt P36639)
T18 construct: to get the native cell lysate; endogenous in cells; host or cells: A375

With `Cn1c(=O)[nH]c2ccc(-c3cccc(C(=O)NC4CCn5ccnc5C4)c3)cc21` (stereo not drawn) [Z36-MP5, 3-(3-methyl-2-oxo-2,3-dihydro-1H-benzo[d]imidazol-5-yl)-N-(5,6,7,8-tetrahydroimidazo[1,2-a]pyridin-7-yl)benzamide] the “Inhibition (%) by 1 μM Z36-MP5” value (NOP2) was 1.98%, the “Inhibition (%) by 1 μM Z36-MP5” value (VCP; SEQ ID NO: 225, ATP BS) was −8.02% and the “Inhibition (%) by 1 μM Z36-MP5” value (VCP; SEQ ID NO: 226, ATP BS) was −2.36%. The “Inhibition (%) by 1 μM Z36-MP5” value (VCP; SEQ ID NO: 227, ATP BS) was −7.20%, the “Inhibition (%) by 1 μM Z36-MP5” value (VCP; SEQ ID NO: 228, ATP BS) was 7.80% and the “Inhibition (%) by 1 μM Z36-MP5” value (SPG7) was 0.12%. For the same compound, the “Inhibition (%) by 1 μM Z36-MP5” value (TOR3A) was 6.55%, the “Inhibition (%) by 1 μM Z36-MP5” value (ACLY; SEQ ID NO: 22, ATP BS) was −6.87% and the “Inhibition (%) by 1 μM Z36-MP5” value (ACLY; SEQ ID NO: 23, ATP BS) was 2.00%. For the same compound, the “Inhibition (%) by 1 μM Z36-MP5” value (PC) was −15.19%, the “Inhibition (%) by 1 μM Z36-MP5” value (RFC2) was 1.52% and the “Inhibition (%) by 1 μM Z36-MP5” value (DDX3X) was 11.22%. For the same compound, the “Inhibition (%) by 1 μM Z36-MP5” value (TOP2A, TOP2B) was 11.93%, the “Inhibition (%) by 1 μM Z36-MP5” value (TRMU; SEQ ID NO: 211, ATP BS) was −13.98% and the “Inhibition (%) by 1 μM Z36-MP5” value (TRMU; SEQ ID NO: 212, ATP BS) was −2.57%. For the same compound, the “Inhibition (%) by 1 μM Z36-MP5” value (PFKM) was −8.93%, the “Inhibition (%) by 1 μM Z36-MP5” value [1] was −5.50% and the “Inhibition (%) by 1 μM Z36-MP5” value (HSP90AB1, HSP90AB3P) was −16.94%. For the same compound, the “Inhibition (%) by 1 μM Z36-MP5” value (ABCD3) was 3.07%, the “Inhibition (%) by 1 μM Z36-MP5” value (HPRT1) was 12.92% and the “Inhibition (%) by 1 μM Z36-MP5” value (GART; SEQ ID NO: 80, ATP BS) was −8.85%. The “Inhibition (%) by 1 μM Z36-MP5” value (GART; SEQ ID NO: 81, ATP BS) was −7.56%, the “Inhibition (%) by 1 μM Z36-MP5” value (GART; SEQ ID NO: 82, ATP BS) was −2.13% and the “Inhibition (%) by 1 μM Z36-MP5” value (PSMC5) was −3.98%. The “Inhibition (%) by 1 μM Z36-MP5” value (ABCC3; ABCC3, SEQ ID NO: 9, ATP BS) was 4.57%, the “Inhibition (%) by 1 μM Z36-MP5” value (ABCC3; ABCC3, SEQ ID NO: 10, ATP BS) was 9.43% and the “Inhibition (%) by 1 μM Z36-MP5” value (CCT2) was −6.50%. The “Inhibition (%) by 1 μM Z36-MP5” value (NUDT1; NUDT1, SEQ ID NO: 142, ATP BS) was 25.70%, the “Inhibition (%) by 1 μM Z36-MP5” value (NUDT1; NUDT1, SEQ ID NO: 143, ATP BS) was 22.17% and the “Inhibition (%) by 1 μM Z36-MP5” value (NUDT1; NUDT1, SEQ ID NO: 144, ATP BS) was 18.32%.
